This is an account of results in article PMC5908784, “Extracellular loops 2 and 3 of the calcitonin receptor selectively modify agonist binding and efficacy” (Biochemical Pharmacology, 2018).

Substitutions are numbered along the chain they refer to. Where a SMILES comes first, the peptide text is derived from it. Bridges are numbered along the chain shown (N, C = ends).

Common to all, as to assay: Heterologous whole cell competition binding
Common to all, as to conditions: heterologous competition of 125I-sCT(8-32), whole cells, mean ± S.E.M., SEM

One test concerns the target T1, hCTR L297A (Homo sapiens, UniProt P30988, L297A).
T1 construct: c-Myc (N); expressed in transfected cells
T1 sequence (P30988 25-474 L297A): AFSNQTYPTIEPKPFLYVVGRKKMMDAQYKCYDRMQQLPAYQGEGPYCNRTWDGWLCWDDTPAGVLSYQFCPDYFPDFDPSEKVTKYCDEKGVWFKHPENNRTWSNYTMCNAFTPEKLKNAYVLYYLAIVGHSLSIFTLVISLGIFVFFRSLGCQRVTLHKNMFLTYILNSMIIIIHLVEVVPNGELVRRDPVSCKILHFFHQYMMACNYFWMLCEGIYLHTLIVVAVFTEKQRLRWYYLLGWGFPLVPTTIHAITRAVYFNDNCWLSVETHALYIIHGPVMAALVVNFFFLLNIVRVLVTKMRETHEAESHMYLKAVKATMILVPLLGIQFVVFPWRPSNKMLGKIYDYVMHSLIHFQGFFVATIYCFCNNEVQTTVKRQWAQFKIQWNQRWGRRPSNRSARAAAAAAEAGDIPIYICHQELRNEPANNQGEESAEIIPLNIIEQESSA
A digest of the protocol: (§1)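 Reported pKi values come from whole-cell displacement of a radiolabelled tracer, incubated overnight and quantified by gamma counting after washing out free ligand, with correction for tracer occupancy (Cheng-Prusoff).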

Another test deals with T2, hCTR I279A (Homo sapiens, UniProt P30988, I279A).
T2 construct: expressed in transfected cells
T2 sequence (P30988 25-474 I279A): T1 sequence (P30988 25-474 L297A) with I255A, A273L
A digest of the protocol: as §1

The target of the next test is T3, hCTR R362A (Homo sapiens, UniProt P30988, R362A).
T3 construct: expressed in transfected cells
T3 sequence (P30988 25-474 R362A): T1 sequence (P30988 25-474 L297A) with A273L, R338A
A digest of the protocol:
as §1

For another test, the target named is T4, hCTR V357A (Homo sapiens, UniProt P30988, V357A).
T4 construct: c-Myc (N); expressed in transfected cells
T4 sequence (P30988 25-474 V357A): T1 sequence (P30988 25-474 L297A) with A273L, V333A
A digest of the protocol:
as §1

Another test addresses T5, hCTR V293A (Homo sapiens, UniProt P30988, V293A).
T5 construct: c-Myc (N); expressed in transfected cells
T5 sequence (P30988 25-474 V293A): T1 sequence (P30988 25-474 L297A) with V269A, A273L
A digest of the protocol: as §1

Regarding `CSCC[C@H](NC(=O)CNC(=O)[C@H](CO)NC(=O)[C@H](Cc1ccccc1)NC(=O)[C@H](CCCNC(=N)N)NC(=O)[C@H](Cc1c[nH]cn1)NC(=O)[C@H](Cc1ccccc1)NC(=O)[C@H](CC(N)=O)NC(=O)[C@H](CC(N)=O)NC(=O)[C@H](CC(C)C)NC(=O)[C@H](CC(N)=O)NC(=O)[C@H](CCCNC(=N)N)NC(=O)[C@H](Cc1c[nH]c2ccccc12)NC(=O)[C@H](Cc1ccc(O)cc1)NC(=O)[C@H](C)NC(=O)[C@H](CO)NC(=O)[C@H](CC(C)C)NC(=O)[C@@H](NC(=O)[C@@H]1CSSC[C@H](N)C(=O)N[C@@H](CO)C(=O)N[C@@H](CC(N)=O)C(=O)N[C@@H](CC(C)C)C(=O)N[C@@H](CO)C(=O)N[C@@H]([C@@H](C)O)C(=O)N1)C(C)C)C(=O)NCC(=O)N[C@@H](Cc1ccccc1)C(=O)NCC(=O)N1CCC[C@H]1C(=O)N[C@@H](CCC(=O)O)C(=O)N[C@H](C(=O)N1CCC[C@H]1C(N)=O)[C@@H](C)O` [pCT] (H-CSNLSTCVLSAYWRNLNNFHRFSGMGFGPETP-NH2; disulfide 1-7), the Ki was 15.5 nM at hCTR L297A; 14.8 nM at hCTR I279A; 46.8 nM on hCTR R362A; 12.9 nM at hCTR V357A; 14.1 nM at hCTR V293A.
